Data taken from US7094754B2, “Anti-aging and wound healing compounds” (Kimberly-Clark Worldwide, Inc., priority 2001, dated 2006).
Ends that are not written are not given here.

Columns and labels:
Assay type in all cases: cell-based
[1] = Viability assay (MTT) in EpiDerm skin model; settings: human, EpiDerm skin model (MatTek), relative to PBS control, average over 500 μM and 2 mM, read-out: total average viability
Excerpt: FIG. 16 provides a bar graph showing the percent living cells, relative to a positive control, in a skin model after treatment with two concentrations of peptide. The first sample, treated with phosphate buffered saline (PBS), is the positive control used to establish the cell count representing 100% viability. The second sample is a negative control where cells were exposed to 1% Triton-X100, showing that the assay can detect cell death. […] Data shown represent the average of three tests.
The sample containers were transferred to 6 well plates that contained fresh media. All peptides were dissolved in PBS at a final concentration of 10 mM, and 100 μL each peptide solution was pipetted onto the surface of the Epiderm sample container. Incubation was continued for 12 hours at 37° C., 5% CO2. After the incubation period, the sample containers were washed three times with PBS and the sample containers were transferred to a 24 well plate that contained 300 μL of MTT assay media per well (MTT concentration was 1 mg/mL). The colorimetric assay was allowed to develop for three hours (incubation at 37° C., 5% CO2). Sample containers were then transferred to a 24 well culture plate that contained 2 mL of isopropanol per well. Extraction of the colored precipitate occurred over a period of four hours at room temperature. Absorbance readings were taken at 570 nm and 650 nm for each sample. The percent viability of each sample relative to a PBS control was calculated as: 100×(OD570^sam−OD650^sam)/(OD570^con−OD650^con) (6) Routinely, the peptide sample was assayed in triplicate. Results The sequence of matrix metalloproteinase-2 (SEQ ID NO:14) is provided below to facilitate definition of the various domains and regions in matrix metalloproteinases.

[2] = system: normal human dermal fibroblasts (NHDF); test: NHDF migration assay (48-well chemotaxis chamber); settings: three hours
Procedure: Normal, human dermal fibroblasts (NHDF) were obtained from Biowhittaker, (Walkersville, Md.) and propagated in T75 flasks in FBM media (500 mL, Biowhittaker) containing insulin, hFGF-b, GA-1000, and fetal bovine serum (10 mL) for up to 12 passages. For the migration assay, NHDF were washed once with 10 mL of Hank's buffered saline solution (HBSS). Three milliliters of trypsin (0.25%) in EDTA were added to the T75 flask for no more than five minutes to remove NHDF from the flask. NHDF in trypsin solution were added to 7 mL of FBM with no supplements added. NHDF were centrifuged for 5 minutes, and the supernatant was removed. NHDF were resuspended in 10 mL of FBM for counting. NHDF were centrifuged for another 5 minutes, and the supernatant was removed. NHDF were resuspended at 1×10^6 cells per mL in FBM without supplements. It was important to use FBM media only in migration assays because the complete media contains fibroblast growth factor and serum, both of which will trigger migration of fibroblasts.
(§1) Peptides were synthesized and purified by the Microchemical Facility at Emory University or by SigmaGenesis. All peptides were analyzed by mass spectrometry after HPLC to assess purity. Approximately 0.5–2.0 milligrams of peptide were used to make fresh stock solutions (5 mg/mL in PBS) for each migration assay. The peptide stock solutions in PBS were used to make more dilute solutions (1 mg/mL, 100 μg/mL, 10 μg/mL, 1 μg/mL, 100 ng/mL, 10 ng/mL) in FBM (without supplements) for the migration assays.
Polyvinylpyrrolidone-free polycarbonate membranes with […] pores (Neuroprobe, Inc., Gaithersburg, Md.) were washed with 90% ethanol for 15 minutes and rinsed four times with deionized water. Membranes were then placed into a glass dish containing an aqueous solution of 5 μg/mL gelatin. The glass dish was placed in to a water bath at about 90° C. for one hour. Membranes were removed from the gelatin solution and were allowed to dry for one hour in the 37° C. incubator.
A 48-well chemotaxis chamber (Neuroprobe, Inc., Gaithersburg, Md.) (see FIG. 20) was used for the migration assays. Twenty-eight/μL of each test solution were added to the bottom wells of the chamber in quadruplicate. A gelatin-treated membrane was placed carefully on top of the bottom wells. The gasket and top part of chamber were then placed carefully on top of the membrane. The apparatus was tightened using six thumbscrews. A solution of NHDF containing an estimated cell density (2×10^5 cells per mL) was made by adding 320 μL of the 1×10^6 cells per mL solution to 1.28 mL of FBM (no supplements). Fifty microliters of the 2×10^5 cells per mL NHDF solution were added to the top part of each well in the chamber. The chamber was placed in the incubator at 37° C./5% CO2 for three hours. The chamber was removed, the thumbscrews were removed, and the chamber was turned upside down on a paper towel. […] The membrane was carefully removed. […] The membrane was fixed with methanol and stained using the Diff-Quik Staining Solutions I and II. The nuclei of NHDF are stained purple. The membrane was mounted on a glass slide using cedarwood immersion oil and a cover slip. […] The average number of migrated NHDF in the negative control was subtracted from the experimental (peptide) data and positive control data.

[3] = system: neutrophils isolated from human blood; test: Neutrophil migration assay (transwell); settings: 10 nM, positive control; HSA 0.4%
Procedure: as §1, with “HBSS/HSA)” for “PBS)”, “solutions” for “solutions in PBS”, “ng/mL, and” for “ng/mL,”, “HBSS/HSA” for “FBM (without supplements)”, “the” for “the migration”
Neutrophils were isolated from human blood (collected in Vacutainerm tubes containing EDTA) by layering the blood/EDTA mixture (about 20 mL) on top of two layers of Histopaque™ 1119 (bottom layer, 18 mL) and 1077 (top layer, 7 mL) in 50 mL Falcon tubes. The tubes were centrifuged at 1800 rpm for 30 minutes (no brake). Four layers appeared in the tubes after the spin (from top to bottom layers): plasma, 1077, 1119, and red blood cells. The buffy coat between the plasma and 1077 layers contained lymphocytes, monocytes, and some platelets. The plasma layer, the buffy coat, and most of the 1077 layer was removed and discarded. The 1119 layer that contained the neutrophils was removed and was placed into a clean 50 mL tube. Dulbecco's Phosphate Buffered Saline (DPBS) was added to bring the volume to 50 mL. The cells were centrifuged for 15 minutes at 2100 rpm. The cells were resuspended in 10 mL of DPBS, transferred to 15 mL tubes, and centrifuged again for 10 minutes at 2000 rpm. This process was repeated to wash the cells a second time. After the supernatant was removed, the red blood cells were lysed by adding 6 mL of cold sterile water to each 15 mL of supernatant. Cells were mixed in the water for only 30 seconds. Six mL of cold 2% sterile saline was then added. Cells were centrifuged again for 10 minutes at 2000 rpm. The red supernatant (containing hemoglobin from red blood cells) was removed. This process of red blood cell lysis was repeated two more times to remove all of the red blood cells. After most of the red blood cells were removed, neutrophils were resuspended in 10 mL of HBSS/HSA for counting with trypan blue.
A neutrophil migration assay was performed in duplicate using a 24-well transwell plate (3 μm pore size for membrane). Transwell membranes were pre-moistened with 20–40 μL of HBSS/HSA (0.04–0.4%). Chemotactic solutions (500 μL) were added to the bottom of each well. […] Transwells were then placed into the chemotactic solutions. The plate was placed into the incubator (37° C., 5% CO2) for one hour. Cells that migrated through the membrane were counted using trypan blue.
In the neutrophil migration experiments, neutrophils that were isolated were approximately 95% viable. Neutrophils were resuspended in HBSS/0.4%HSA for this experiment. IL-8 (10 nM in the HBSS/0.4%HSA buffer) was used as a positive control for neutrophil migration.

Row | Substance | viability at 12 h [1] | percent of migrated NHDF compared to plasma fibronectin positive control ([2]; 100 μg/mL peptide) | percent of migrated NHDF compared to plasma fibronectin positive control ([2]; 1000 μg/mL peptide) | Percent Neutrophil Migration exp.1 [3]
1 | PRCGNPDVA [9-mer] | 95.8% | 16±0% | 32±2% | –
2 | IL-8: positive control for neutrophil migration (10 nM in HBSS/HSA buffer) [reference compound] | – | – | – | 81%
3 | NYNFFPRKPK [10-mer] | 89.6% | 11±0% | 30±2% | –
